± gives the expanded uncertainty stated by the source.
Settings: for mass density: 101.33 kPa, Liquid

surface tension liquid-gas (288.15 K) [mN/m]	mass density (288.15 K) [kg/m3]	surface tension liquid-gas (293.15 K) [mN/m]	mass density (293.15 K) [kg/m3]	surface tension liquid-gas (298.15 K) [mN/m]	mass density (298.15 K) [kg/m3]	surface tension liquid-gas (303.15 K) [mN/m]	mass density (303.15 K) [kg/m3]	surface tension liquid-gas (308.15 K) [mN/m]	mass density (308.15 K) [kg/m3]	Structure (SMILES)
24.68 ± 0.29	813.32 ± 0.23	24.21 ± 0.29	809.56 ± 0.23	23.79 ± 0.29	805.72 ± 0.24	23.34 ± 0.28	801.91 ± 0.24	22.79 ± 0.28	798.07 ± 0.24	CCCCO [butan-1-ol]
20.81 ± 0.27	687.98 ± 0.65	20.27 ± 0.27	683.78 ± 0.65	19.68 ± 0.27	679.55 ± 0.66	19.19 ± 0.26	675.3 ± 0.66	18.93 ± 0.26	671 ± 0.67	CCCCCCC [heptane]
26.08 ± 0.32	822.28 ± 0.91	25.61 ± 0.32	818.75 ± 0.92	25.19 ± 0.32	815.23 ± 0.93	24.74 ± 0.32	811.6 ± 0.94	24.19 ± 0.31	808 ± 0.95	CCCCCCO [hexan-1-ol]
27.41 ± 0.31	828.55 ± 0.45	26.94 ± 0.31	825.11 ± 0.45	26.52 ± 0.31	821.64 ± 0.46	26.07 ± 0.3	818.19 ± 0.46	25.52 ± 0.3	814.69 ± 0.47	CCCCCCCCO [octan-1-ol]
